In patent US20230181746A1, “BENZOYLHYDRAZIDE-DERIVED HDAC DEGRADERS AS THERAPEUTICS FOR TREATING CANCER AND OTHER HUMAN DISEASES” (University of Florida Research Foundation, Inc., priority 2020, published 2023):

Assays:
Format in all cases: cell-based
HDAC2 = HDAC2 (Homo sapiens, UniProt Q92769); assay: HDAC2 protein level in breast cancer cell lines, Western blot; details: MDA-MB-468 cells, 14 h
Description: (§1) FIG. 3A: Western blot showing HDAC protein levels in MDA-MB-468 cells treated with the indicated concentration of XZ9002 for 14 h. FIG. 3B: pretreatment with 1 μM MG132, or 10 μM VHL032 for 1 h blocked the degradation of HDAC3 by XZ9002 {125 nM}. […] NC: XZ9002-NC. FIG. 3C: time-dependent experiment in MDA-MB-468 cells after treatment with 125 nM XZ9002 at the indicated time points. FIG. 3D: MDA-MB-468 cells were incubated with 125 nM of XZ9002 for 14 h followed by drug washout, and incubation of the cells in drug-free medium for an additional time. Data are presented as representative figures of two independent experiments.
The culture of the triple-negative breast cancer cell line MDA-MB-468 and the ER+ breast cancer cell line T47D was exposed to vehicle control (DMSO) and the indicated compounds at specified concentrations for 14 h. Cells were lysed for WB with antibodies against the indicated proteins. Antibodies against acetylated histones at specific sites (H3K27 and H4K5) and acetyl-lysine were used to assess levels of histone acetylation. Levels of HDAC3 were normalized against that of tubulin and % of HDAC3 protein levels in cells treated with the indicated compounds relative to that in DMSO control is shown.
FIGS. 8A-8B show the cellular activity of XZ9002. […] Cells were lysed for WB. The relative HDAC3 protein level in each sample is shown. […]

HDAC6 = biological target: T1, HDAC6 (Homo sapiens, UniProt Q9UBN7); assay: HDAC6 protein level in MDA-MB-468 cells, Western blot; details: 14 h
T1 construct: endogenous in cells; host or cells: MDA-MB-468
T1 sequence (Q9UBN7 1-1215): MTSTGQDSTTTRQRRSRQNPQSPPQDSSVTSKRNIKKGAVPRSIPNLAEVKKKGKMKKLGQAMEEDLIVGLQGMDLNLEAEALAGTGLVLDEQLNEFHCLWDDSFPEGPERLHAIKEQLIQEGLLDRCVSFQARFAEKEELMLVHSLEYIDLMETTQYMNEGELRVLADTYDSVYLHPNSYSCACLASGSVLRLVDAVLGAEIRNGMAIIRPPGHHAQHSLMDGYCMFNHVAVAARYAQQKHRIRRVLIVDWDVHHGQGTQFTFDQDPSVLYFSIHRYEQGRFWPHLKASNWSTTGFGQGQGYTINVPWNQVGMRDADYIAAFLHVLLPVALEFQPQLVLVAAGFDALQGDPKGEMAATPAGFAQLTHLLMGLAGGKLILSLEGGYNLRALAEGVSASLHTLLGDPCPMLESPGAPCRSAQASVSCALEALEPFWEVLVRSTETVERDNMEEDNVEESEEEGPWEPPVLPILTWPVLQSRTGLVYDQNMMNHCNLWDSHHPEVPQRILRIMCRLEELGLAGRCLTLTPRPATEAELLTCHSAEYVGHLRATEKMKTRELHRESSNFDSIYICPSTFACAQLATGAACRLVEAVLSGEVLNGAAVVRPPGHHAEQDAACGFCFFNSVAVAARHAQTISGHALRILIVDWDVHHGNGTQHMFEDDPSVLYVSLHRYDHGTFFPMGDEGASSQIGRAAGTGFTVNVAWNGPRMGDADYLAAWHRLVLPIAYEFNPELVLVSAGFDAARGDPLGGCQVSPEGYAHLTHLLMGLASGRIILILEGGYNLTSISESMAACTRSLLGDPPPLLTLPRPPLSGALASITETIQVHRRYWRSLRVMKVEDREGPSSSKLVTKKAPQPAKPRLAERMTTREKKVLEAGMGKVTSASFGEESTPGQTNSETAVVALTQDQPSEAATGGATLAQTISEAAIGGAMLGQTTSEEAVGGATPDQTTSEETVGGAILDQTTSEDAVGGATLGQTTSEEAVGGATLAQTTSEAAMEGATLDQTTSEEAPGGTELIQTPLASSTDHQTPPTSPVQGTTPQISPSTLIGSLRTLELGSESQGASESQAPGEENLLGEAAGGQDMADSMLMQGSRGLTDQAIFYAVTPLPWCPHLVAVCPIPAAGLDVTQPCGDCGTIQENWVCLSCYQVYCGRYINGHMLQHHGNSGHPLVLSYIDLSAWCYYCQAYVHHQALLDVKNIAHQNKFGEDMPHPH
Description: as §1
Cell lines were obtained from ATCC and subsequently authenticated. Cells were cultured with DMEM supplemented with 10% bovine calf serum, penicillin to 10 units/mL, and streptomycin to 10 μg/mL. For viability assays, 5,000 cells/well were seeded in 96-well plates. Compounds at a specified concentration or DMSO were added 24 h later. Viability assays were performed 72 h after compound addition using the CellTiter-Glo reagents (Promega). For colony formation assay, cells (˜1,000 cells/well) were seeded in a 24-well plate in quadruplicates. At 24 h after seeding, DMSO, XZ9002, or XZ9002-NC were added at a specified concentration. […]

MDA-MB-468 cells = assay: Cell viability assay (CellTiter-Glo); details: MDA-MB-468, 72 h; similar trends in MDA-MB-231 and T47D cells
Description: MDA-MB-468, MDA-MB-231, and T47D cells were treated with the indicated compounds at different concentrations for 72 h. Cell viability was assessed with CellTiter-Glo® reagents.
Cell lines were obtained from ATCC and subsequently authenticated. Cells were cultured with DMEM supplemented with 10% bovine calf serum, penicillin to 10 units/mL, and streptomycin to 10 μg/mL. For viability assays, 5,000 cells/well were seeded in 96-well plates. Compounds at a specified concentration or DMSO were added 24 h later. Viability assays were performed 72 h after compound addition using the CellTiter-Glo reagents (Promega). For colony formation assay, cells (˜1,000 cells/well) were seeded in a 24-well plate in quadruplicates. At 24 h after seeding, DMSO, XZ9002, or XZ9002-NC were added at a specified concentration. Medium was replaced with freshly prepared medium containing DMSO, XZ9002 or XZ9002-NC every five days until visible colonies appeared, typically in 15 to 20 days after initial cell seeding. Cells were fixed with 4% paraformaldehyde for 15 min and stained with 2% methylene blue in 20% ethanol for 30 min to 1 h. The cells were washed twice with distilled water and dried in air. For western blotting, cell cultures were exposed to compounds as indicated in relevant figures. Medium was removed from culture plate, and 1 x passive lysis buffer was then added, the plates were frozen at −80° C. overnight and thawed at room temperature. The total cell lysates were mixed with a one fifth volume of 6x SDS sample buffer, heated at 95° C. for 5 min and cooled on ice. The lysates were cleared by centrifugation and then subjected to SDS-PAGE and western blotting essentially as described. […]

HDAC2, sequence (Q92769 whole entry): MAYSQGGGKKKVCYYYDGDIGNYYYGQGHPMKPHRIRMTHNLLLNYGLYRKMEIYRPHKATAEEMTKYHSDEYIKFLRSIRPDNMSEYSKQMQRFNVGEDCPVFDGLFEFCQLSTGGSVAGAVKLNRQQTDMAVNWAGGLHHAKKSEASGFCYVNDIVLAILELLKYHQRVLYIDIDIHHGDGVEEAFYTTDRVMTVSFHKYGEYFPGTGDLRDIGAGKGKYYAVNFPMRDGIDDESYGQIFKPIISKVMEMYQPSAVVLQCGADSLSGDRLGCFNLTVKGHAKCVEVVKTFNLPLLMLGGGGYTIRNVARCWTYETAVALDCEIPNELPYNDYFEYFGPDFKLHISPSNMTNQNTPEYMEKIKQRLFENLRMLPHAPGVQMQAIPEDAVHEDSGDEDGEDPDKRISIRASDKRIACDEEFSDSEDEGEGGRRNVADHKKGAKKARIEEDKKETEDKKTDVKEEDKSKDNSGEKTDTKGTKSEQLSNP

- change in HDAC2 protein level (HDAC2): no significant changes
- change in HDAC6 protein level (HDAC6): no significant changes
Structure (SMILES): CCCNNC(=O)c1ccc(-c2ccc(NC(=O)CCCCCCC(=O)N[C@H](C(=O)N3C[C@H](O)C[C@H]3C(=O)N[C@@H](C)c3ccc(-c4scnc4C)cc3)C(C)(C)C)cc2)cc1 [XZ9002, N^1—((S)-1-((2S,4R)-4-hydroxy-2-(((S)-1-(4-(4-methylthiazol-5-yl)phenyl)ethyl)carbamoyl)pyrrolidin-1-yl)-3,3-dimethyl-1-oxobutan-2-yl)-N^5-(4′-(2-propylhydrazine-1-carbonyl)-[1,1′-biphenyl]-4-yl)octanediamide]
- antiproliferative activity (in words) (MDA-MB-468 cells): more potent in killing cancer cells
